Reference: patent US6541463B1, “Inhibitors of type 5 and type 3 17β-hydroxysteroid dehydrogenase and methods for their use” (Endorecherche, Inc., priority 1998, dated 2003)

Molecular target: T1, estrogen receptor (Rattus norvegicus, UniProt P06211)
T1 construct: from tissue; host or cells: uterine cytosol of gonadectomized female Sprague-Dawley rats
T1 sequence (P06211 1-600): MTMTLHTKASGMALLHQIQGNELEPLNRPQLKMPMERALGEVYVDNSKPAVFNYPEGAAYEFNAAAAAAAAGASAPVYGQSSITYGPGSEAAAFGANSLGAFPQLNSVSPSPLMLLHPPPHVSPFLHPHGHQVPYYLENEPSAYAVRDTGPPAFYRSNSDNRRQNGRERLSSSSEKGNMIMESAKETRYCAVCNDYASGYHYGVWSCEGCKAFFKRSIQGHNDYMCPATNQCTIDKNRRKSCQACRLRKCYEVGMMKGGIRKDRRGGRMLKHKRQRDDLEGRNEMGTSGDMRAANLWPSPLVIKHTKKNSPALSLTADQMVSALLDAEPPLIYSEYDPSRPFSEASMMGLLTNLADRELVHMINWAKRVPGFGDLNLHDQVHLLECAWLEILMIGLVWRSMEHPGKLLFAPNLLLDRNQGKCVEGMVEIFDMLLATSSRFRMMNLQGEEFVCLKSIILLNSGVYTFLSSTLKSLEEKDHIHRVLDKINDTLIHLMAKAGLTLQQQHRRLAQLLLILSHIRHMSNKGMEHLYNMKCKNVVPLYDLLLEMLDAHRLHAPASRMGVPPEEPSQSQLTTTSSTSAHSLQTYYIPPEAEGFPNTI
Test: Estrogen receptor (ER) assay: inhibition of [3H]E2 binding, uterine cytosol
Experimental: Female Sprague-Dawley rats (Crl: CD(SD)Br) weighing 200-300 g were obtained from Charles-River Inc. (St-Constant, Québec, Canada). The rats were gonadectomized under general anesthesia (Isoflurane) and killed by cervical dislocation 24 hours later. The uteri were rapidly removed, dissected free from adhering tissue and frozen on dry-ice. Uteri were kept at −80° C. until assay. All subsequent steps were performed at 0-4° C. Uteri were homogenized in 10 vol (wt/vol) of buffer A (25 mM Tris-HCI, 1.5 mM EDTA disodium salt, 10 mM α-monothioglycerol, 10% glycerol, and 10 mM sodium molybdate, pH 7.4), using a Polytron PT-10 homogenizer (Brinkman Instruments, Canada) at a setting of 5 for three periods of 10 sec, with intervals of 10 sec for cooling. The homogenate was then centrifuged at 105,000×g for 60 min in a Beckman L5-65 ultracentrifuge (Fullerton, Calif.). The protein concentration of the cytosol fraction was measured according to the method of Bradford (Anal. Biochem. 72: 248-254, 1976), using bovine serum albumin as standard.
Estrogen binding was measured using the dextran-coated charcoal adsorption technique as described previously (Asselin et al., Endocrinology, 101: 666-671, 1977; Asselin and Labrie, J. Steroid Biochem., 9: 1079-1082, 1978). Briefly, [^3H]E2 solubilized in ethanol were diluted into buffer A. Aliquots of uterine cytosol preparation (0.1 ml) were incubated with 5 nM [^3H]E2 (˜200,000 cpm, 0.1 ml) in the presence or absence of the indicated concentrations of unlabeled compounds (0.1 ml, prepared in buffer A containing 10% ethanol) for 3 h at room temperature. Unbound steroids were then separated by incubation for 15 min at 0-4° C. with 0.3 ml 0.5% Norit-A and 0.05% Dextran T-70 in buffer B (1.5 mM EDTA disodium salt, 10 mM monothioglycerol, and 10 mM Tris-HCI, pH 7.4) and centrifuged at 3,000×g for 15 min. Aliquots of the supernatant (0.3 ml) were removed for radioactivity measurement.

Structure (SMILES)	% Inhibition Estrogen Receptor E^−6 (Table 4′, E^−6)	% Inhibition Estrogen Receptor E^−8 (Table 4′, E^−8)	further results
COCCOc1cc2c(cc1C(N)=O)C1CC[C@@]3(C)C(CC[C@@]34CCC(C)(C)C(=O)O4)C1CC2 (stereo partly drawn) [EM-1424, 2-Carbamoyl-3-(2″-methoxyethyloxy)-1,3,5(10)-estratrien 17(R)-spiro-2′-(5′,5′-dimethyl-6′-oxo)tetrahydropyran]	3%	3%	–
CCCC(=O)OC1(C(C)=O)CCC2C3C=C(C)C4=CC(=O)CC(C)C4(C)C3CCC21C (centres unmarked) [CS-245]	–	–	% Inhibition Estrogen Receptor (E^−6): 2%; % Inhibition Estrogen Receptor (E^−8): 0%
COCCOc1cc2c(cc1C(=O)OC)C1CC[C@@]3(C)C(CC[C@@]34CCC(C)(C)C(=O)O4)C1CC2 (stereo partly drawn) [EM-1402-CS, 2-Carbomethoxy-3-(2″-methoxyethyloxy)-1,3,5(10)-estratrien 17(R)-spiro-2′-(5′,5′-dimethyl-6′-oxo)tetrahydropyran]	0%	1%	–
COc1ccc2c(c1)CCC1C2CCC2(C)C1CCC21CCC(C)(C)C(=O)O1 (centres unmarked) [EM-1370]	2%	0%	–
CCC(=O)O[C@]1(C(C)=O)CCC2C3C=C(C)C4=CC(=O)C[C@H](C)[C@]4(C)C3CC[C@@]21C (some centres unmarked) [CS-243]	–	–	% Inhibition Estrogen Receptor (E^−6): 0%; % Inhibition Estrogen Receptor (E^−8): 1%
COc1ccc2c(c1)C(=O)CC1C2CC[C@@]2(C)C1CC[C@@]21CCC(C)(C)C(=O)O1 (some centres unmarked) [EM-1394]	8%	4%	–
COCCOc1cc2c(cc1C(=O)O)C1CCC3(C)C(CCC34CCC(C)(C)C(=O)O4)C1CC2 [EM-1405, 2-Carboxy-3-(2″-methoxyethyloxy)-1,3,5(10)-estratrien-17(R)-spiro-2′-(5′,5′-dimethyl-6′-oxo)tetrahydropyran]	0%	0%	–
CCC[C@]1(F)CC2C3C=CC4=CC(=O)CC[C@]4(C)C3CC[C@]2(C)C1=O (some centres unmarked) [EM-1183]	–	–	% Inhibition Estrogen Receptor E^−6 (E^−6): 0%; % Inhibition Estrogen Receptor E^−8 (E^−8): 0%
CC12CCC3c4ccc(F)cc4CCC3C1CCC21CCCC(=O)O1 (centres unmarked) [EM-1170-CS]	0%	0%	–
CCS(=O)(=O)Oc1ccc2c(c1)CCC1C2CCC2(C)C1CCC21CCC(C)(C)C(=O)O1 (centres unmarked) [EM-1364-CS]	5%	0%	–
CSCCOc1ccc2c(c1)CCC1C2CCC2(C)C1CCC21CCCC(=O)O1 [CS-242, 3-Methylthioethyloxy-1,3,5(10)-estratrien-17(R)-spiro-2′-(6′-oxo) Tetrahydropyran]	0%	0%	–
CN(C)CCOc1ccc2c(c1)CCC1C2CCC2(C)C1CCC21CCC(C)(C)C(=O)O1 (centres unmarked) [EM-1389-CS]	0%	0%	–
CC1(C)CCC2(CCC3C4CCc5c(cc(Cl)c(O)c5Cl)C4CCC32C)OC1=O (centres unmarked) [EM-1391-CS]	0%	0%	–
CC(=O)O[C@]1(C(=O)N(C)C)CCC2C3C=C(C)C4=CC(=O)CC[C@]4(C)C3CC[C@@]21C (some centres unmarked) [EM-1159]	–	–	% Inhibition Estrogen Receptor (E^−6): 1%; % Inhibition Estrogen Receptor (E^−8): 0%
CC1(C)CCC2(CCC3C4CCc5ccccc5C4CCC32C)OC1=O (centres unmarked) [CS-224]	2%	0%	–
CN1C(=O)C=C[C@]2(C)C3CC[C@@]4(C)C(CC[C@@]45CCCC(=O)O5)C3CCC12 (some centres unmarked) [EM-1122-CS]	–	–	% Inhibition Estrogen Receptor E^−6 (Table 5 column 16, E^−6): 0%; % Inhibition Estrogen Receptor E^−8 (Table 5 column 16, E^−8): 2%
